# Assay results from patent US20070049564A1 (Wyeth, priority 2005, published 2007).
# Read-outs that look alike come from different tables or passages of the source.
# How the values were obtained:
# E. faecalis GC 2242 = assay: MIC, broth microdilution; conditions: Enterococcus faecalis, GC2242, E. faecalis GC 2242
# E. faecium GC 2243 = assay: MIC, broth microdilution; conditions: Enterococcus faecium, GC2243, E. faecium GC 2243
# E. coli GC 4559 = assay: MIC, broth microdilution; conditions: Escherichia coli, GC4559, E. coli GC 4559
# S. aureus GC 4536 = assay: MIC, broth microdilution; conditions: Staphylococcus aureus, GC4536, S. aureus GC 4536
# S. aureus GC 6469 = assay: MIC, broth microdilution; conditions: Staphylococcus aureus, GC6469, S. aureus GC 6469
# S. aureus GC 6335 = assay: MIC, broth microdilution; conditions: Staphylococcus aureus, GC6335, S. aureus GC 6335
# P. aeruginosa GC 2214 = assay: MIC, broth microdilution; conditions: Pseudomonas aeruginosa, GC2214, P. aeruginosa GC 2214
# S. pneumoniae+ GC 4465 = assay: MIC, broth microdilution; conditions: Streptococcus pneumoniae, S. pneumoniae+ GC 4465
# S. agalactiae GC 4564 = assay: MIC, broth microdilution
# S. aureus GC 2216 = assay: MIC, broth microdilution; conditions: Staphylococcus aureus, GC2216, S. aureus GC 2216
# E. coli GC 1073 = assay: MIC, broth microdilution; conditions: Escherichia coli, GC1073, E. coli GC 1073
# E. coli GC 2270 = assay: MIC, broth microdilution; conditions: Escherichia coli, GC2270, E. coli GC 2270
# E. faecalis GC 2265 = assay: MIC, broth microdilution; conditions: Enterococcus faecalis, GC2265, E. faecalis GC 2265
# Protocol: (§1) Antimicrobial susceptibility testing. The in vitro activities of the antibiotics are determined by the broth microdilution method as recommended by the National Committee for Clinical Laboratory Standards (NCCLS) (1). Mueller-Hinton II broth (MHBII)(BBL Cockeysville, Md.) is the medium employed in the testing procedures. Microtiter plates containing serial dilutions of each antimicrobial agent are inoculated with each organism to yield the appropriate density (10^5 CFU/ml) in a 100 μl final volume. The plates are incubated for 18-22 hours at 35° C. in ambient air.
# (§2) Representative compounds were first incubated in mouse serum for an hour prior to the in vitro testing against a panel of selected gram-positive and gram-negative bacteria strains. All compounds were also pre-incubated in water for an hour prior to testing as control.
# E. coli GC 2232 = assay: MIC, broth microdilution; conditions: Escherichia coli, GC2232, E. coli GC 2232
# E. coli GC 2271 = assay: MIC, broth microdilution; conditions: Escherichia coli, GC2271, E. coli GC 2271
# Protocol: as §1, §2
# Staph. aureus Smith = assay: In vivo activity (oral, iv; ED50) against Staph. aureus Smith in mice
# Protocol: Representative examples of compounds of Formula I were tested for the oral efficacy using S. aureus Smith in mice.
# E. coli = assay: Range of MIC for E. coli strains; conditions: Escherichia coli
# c. albicans GC 3066 = assay: MIC, broth microdilution
# S. pyogenes GC 4563 = assay: MIC, broth microdilution; conditions: Streptococcus pyogenes, GC4563, S. pyogenes GC 4563
# E. coli GC 3226 = assay: MIC, broth microdilution; conditions: Escherichia coli, GC3226, E. coli GC 3226
# [1] = S. agalactiae GC 4564, Water pre-incubation
# [2] = Streptococcus agalactiae, GC4564
# [3] = Staphylococcus aureus, in Mus musculus, po, read-out: ED50 Staph Smith SOD
# [4] = iv, read-out: ED50 Staph Smith SIV
# [5] = 20 h, read-out: Range of MIC, E. coli (Mouse Serum)
# [6] = c. albicans GC 3066, Water pre-incubation
# [7] = read-out: Minimum inhibitory concentration (MIC), E. coli (mouse serum)
# [8] = read-out: Minimum inhibitory concentration (MIC), E. coli (water)
# [9] = read-out: Range of MIC, E. coli (Water)
structure (smiles),measurement,setting,value
"CCCN(CC(=O)Nc1cc(N(C)C)c2c(c1O)C(=O)C1=C(O)[C@]3(O)C(=O)C(C(N)=O)=C(O)[C@@H](N(C)C)[C@@H]3C[C@@H]1C2)C(=O)OCOC(=O)Cc1ccccc1 [Example 11, ({[(2-{[(5aR,6aS,7S,10aS)-9-(aminocarbonyl)-4,7-bis(dimethylamino)-1,8,10a,11′-tetrahydroxy-10,12-dioxo-5,5a,6,6a,7,10,10a,12-octahydrotetracen-2-yl]amino}-2-oxoethyl)(propyl)amino]carbonyl}oxy)methyl phenylacetate]",MIC,E. faecalis GC 2242; Mouse Serum pre-incubation,0.25 µg/mL
same,MIC,E. faecalis GC 2242; Water pre-incubation,0.5 µg/mL
same,MIC,E. faecium GC 2243; Mouse Serum pre-incubation,0.12 µg/mL
same,MIC,E. faecium GC 2243; Water pre-incubation,0.25 µg/mL
same,MIC,E. coli GC 4559; Mouse Serum pre-incubation,0.5 µg/mL
same,MIC,E. coli GC 4559; Water pre-incubation,32 µg/mL
same,MIC,S. aureus GC 4536; Mouse Serum pre-incubation,0.5 µg/mL
same,MIC,S. aureus GC 4536; Water pre-incubation,0.5 µg/mL
same,MIC,S. aureus GC 6469; Mouse Serum pre-incubation,4 µg/mL
same,MIC,S. aureus GC 6469; Water pre-incubation,4 µg/mL
same,MIC,S. aureus GC 6335; Mouse Serum pre-incubation,1 µg/mL
same,MIC,S. aureus GC 6335; Water pre-incubation,1 µg/mL
same,MIC,P. aeruginosa GC 2214; Mouse Serum pre-incubation,16 µg/mL
same,MIC,P. aeruginosa GC 2214; Water pre-incubation,> 64 µg/mL
same,MIC,S. pneumoniae+ GC 4465; Mouse Serum pre-incubation,2 µg/mL
same,MIC,S. pneumoniae+ GC 4465; Water pre-incubation,2 µg/mL
same,MIC,S. agalactiae GC 4564; [1],<0.06 UG/ML
same,MIC,S. agalactiae GC 4564; [2],< 0.06 µg/mL
same,MIC,S. aureus GC 2216; Mouse Serum pre-incubation,0.5 µg/mL
same,MIC,S. aureus GC 2216; Water pre-incubation,0.5 µg/mL
same,MIC,E. coli GC 1073; Mouse Serum pre-incubation,0.5 µg/mL
same,MIC,E. coli GC 1073; Water pre-incubation,16 µg/mL
same,MIC,E. coli GC 2270; Mouse Serum pre-incubation,0.5 µg/mL
same,MIC,E. coli GC 2270; Water pre-incubation,8 µg/mL
same,MIC,E. faecalis GC 2265; Mouse Serum pre-incubation,2 µg/mL
same,MIC,E. faecalis GC 2265; Water pre-incubation,4 µg/mL
same,MIC,E. coli GC 2232; Mouse Serum pre-incubation,1 µg/mL
same,MIC,E. coli GC 2232; Water pre-incubation,16 µg/mL
same,MIC,E. coli GC 2271; Mouse Serum pre-incubation,0.25 µg/mL
same,MIC,E. coli GC 2271; Water pre-incubation,4 µg/mL
same,ED50,Staph. aureus Smith; [3],30.3 mg/kg
same,ED50,Staph. aureus Smith; [4],0.59 mg/kg
same,MIC,E. coli; [5],0.25 to 2 µg/mL
same,MIC,"E. coli; read-out: Range of MIC, E. coli (mouse serum)",0.25 to 2 µg/mL
same,MIC,"c. albicans GC 3066; Candida albicans, GC3066",> 64 µg/mL
same,MIC,c. albicans GC 3066; [6],>64 UG/ML
same,MIC,S. pyogenes GC 4563; Mouse Serum pre-incubation,< 0.06 µg/mL
same,MIC,S. pyogenes GC 4563; Water pre-incubation,< 0.06 µg/mL
same,MIC,E. coli GC 3226; Mouse Serum pre-incubation,0.5 µg/mL
same,MIC,E. coli GC 3226; Water pre-incubation,> 64 µg/mL
"CCCCN(CC(=O)Nc1cc(N(C)C)c2c(c1O)C(=O)C1=C(O)[C@]3(O)C(=O)C(C(N)=O)=C(O)[C@@H](N(C)C)[C@@H]3C[C@@H]1C2)C(=O)OCOC(=O)Cc1ccccc1 [Example 12, ({[(2-{[(5aR,6aS,7S,10aS)-9-(aminocarbonyl)-4,7-bis(dimethylamino)-1,8,10a,11-tetrahydroxy-10,12-dioxo-5,5a,6,6a,7,10,10a,12-octahydrotetracen-2-yl]amino}-2-oxoethyl)(butyl)amino]carbonyl}oxy)methyl phenylacetate]",MIC,E. faecalis GC 2242; Mouse Serum pre-incubation,2 µg/mL
same,MIC,E. faecalis GC 2242; Water pre-incubation,4 µg/mL
same,MIC,E. faecium GC 2243; Mouse Serum pre-incubation,0.5 µg/mL
same,MIC,E. faecium GC 2243; Water pre-incubation,4 µg/mL
same,MIC,E. coli GC 4559; Mouse Serum pre-incubation,1 µg/mL
same,MIC,E. coli GC 4559; Water pre-incubation,64 µg/mL
same,MIC,S. aureus GC 4536; Mouse Serum pre-incubation,1 µg/mL
same,MIC,S. aureus GC 4536; Water pre-incubation,2 µg/mL
same,MIC,S. aureus GC 6469; Mouse Serum pre-incubation,4 µg/mL
same,MIC,S. aureus GC 6469; Water pre-incubation,16 µg/mL
same,MIC,S. aureus GC 6335; Mouse Serum pre-incubation,1 µg/mL
same,MIC,S. aureus GC 6335; Water pre-incubation,2 µg/mL
same,MIC,P. aeruginosa GC 2214; Mouse Serum pre-incubation,32 µg/mL
same,MIC,P. aeruginosa GC 2214; Water pre-incubation,> 64 µg/mL
same,MIC,S. pneumoniae+ GC 4465; Mouse Serum pre-incubation,4 µg/mL
same,MIC,S. pneumoniae+ GC 4465; Water pre-incubation,8 µg/mL
same,MIC,S. agalactiae GC 4564; [1],0.25 UG/ML
same,MIC,S. agalactiae GC 4564; [2],0.25 µg/mL
same,MIC,S. aureus GC 2216; Mouse Serum pre-incubation,1 µg/mL
same,MIC,S. aureus GC 2216; Water pre-incubation,4 µg/mL
same,MIC,E. coli GC 1073; Mouse Serum pre-incubation,1 µg/mL
same,MIC,E. coli GC 1073; Water pre-incubation,64 µg/mL
same,MIC,E. coli GC 2270; Mouse Serum pre-incubation,0.5 µg/mL
same,MIC,E. coli GC 2270; Water pre-incubation,32 µg/mL
same,MIC,E. faecalis GC 2265; Mouse Serum pre-incubation,2 µg/mL
same,MIC,E. faecalis GC 2265; Water pre-incubation,8 µg/mL
same,MIC,E. coli GC 2232; Mouse Serum pre-incubation,0.5 µg/mL
same,MIC,E. coli GC 2232; Water pre-incubation,32 µg/mL
same,MIC,E. coli GC 2271; Mouse Serum pre-incubation,0.5 µg/mL
same,MIC,E. coli GC 2271; Water pre-incubation,16 µg/mL
same,ED50,Staph. aureus Smith; [3],15 mg/kg
same,ED50,Staph. aureus Smith; [4],1 mg/kg
same,MIC,E. coli; [5],0.5 to 2 µg/mL
same,MIC,E. coli; [7],0.5 to 2 µg/mL
same,MIC,E. coli; [8],16 to 64 µg/mL
same,MIC,E. coli; [9],16 to 64 µg/mL
same,MIC,"c. albicans GC 3066; Candida albicans, GC3066",> 64 µg/mL
same,MIC,c. albicans GC 3066; [6],>64 UG/ML
same,MIC,S. pyogenes GC 4563; Mouse Serum pre-incubation,0.12 µg/mL
same,MIC,S. pyogenes GC 4563; Water pre-incubation,0.25 µg/mL
same,MIC,E. coli GC 3226; Mouse Serum pre-incubation,2 µg/mL
same,MIC,E. coli GC 3226; Water pre-incubation,64 µg/mL
"CCCCN(CC(=O)Nc1cc(N(C)C)c2c(c1O)C(=O)C1=C(O)[C@]3(O)C(=O)C(C(N)=O)=C(O)[C@@H](N(C)C)[C@@H]3C[C@@H]1C2)C(=O)OCOC(=O)C(C)(C)C [Example 13, ({[(2-{[(5aR,6aS,7S,10aS)-9-(aminocarbonyl)-4,7-bis(dimethylamino)-1,8,10a,11-tetrahydroxy-10,12-dioxo-5,5a,6,6a,7,10,10a,12-octahydrotetracen-2-yl]amino}-2-oxoethyl)(butyl)amino]carbonyl}oxy)methyl pivalate]",MIC,E. faecalis GC 2242; Mouse Serum pre-incubation,4 µg/mL
same,MIC,E. faecalis GC 2242; Water pre-incubation,8 µg/mL
same,MIC,E. faecium GC 2243; Mouse Serum pre-incubation,2 µg/mL
same,MIC,E. faecium GC 2243; Water pre-incubation,4 µg/mL
same,MIC,E. coli GC 4559; Mouse Serum pre-incubation,4 µg/mL
same,MIC,E. coli GC 4559; Water pre-incubation,16 µg/mL
same,MIC,S. aureus GC 4536; Mouse Serum pre-incubation,1 µg/mL
same,MIC,S. aureus GC 4536; Water pre-incubation,2 µg/mL
same,MIC,S. aureus GC 6469; Mouse Serum pre-incubation,4 µg/mL
same,MIC,S. aureus GC 6469; Water pre-incubation,8 µg/mL
same,MIC,S. aureus GC 6335; Mouse Serum pre-incubation,2 µg/mL
same,MIC,S. aureus GC 6335; Water pre-incubation,4 µg/mL
same,MIC,P. aeruginosa GC 2214; Mouse Serum pre-incubation,32 µg/mL
same,MIC,P. aeruginosa GC 2214; Water pre-incubation,> 64 µg/mL
same,MIC,S. pneumoniae+ GC 4465; Mouse Serum pre-incubation,8 µg/mL
same,MIC,S. pneumoniae+ GC 4465; Water pre-incubation,8 µg/mL
same,MIC,"S. agalactiae GC 4564; Streptococcus agalactiae, GC4564, S. agalactiae GC 4564, Mouse Serum pre-incubation",1 µg/mL
same,MIC,"S. agalactiae GC 4564; Streptococcus agalactiae, GC4564, S. agalactiae GC 4564, Water pre-incubation",2 µg/mL
same,MIC,S. aureus GC 2216; Mouse Serum pre-incubation,2 µg/mL
same,MIC,S. aureus GC 2216; Water pre-incubation,4 µg/mL
same,MIC,E. coli GC 1073; Mouse Serum pre-incubation,2 µg/mL
same,MIC,E. coli GC 1073; Water pre-incubation,16 µg/mL
same,MIC,E. coli GC 2270; Mouse Serum pre-incubation,1 µg/mL
same,MIC,E. coli GC 2270; Water pre-incubation,8 µg/mL
same,MIC,E. faecalis GC 2265; Mouse Serum pre-incubation,4 µg/mL
same,MIC,E. faecalis GC 2265; Water pre-incubation,8 µg/mL
same,MIC,E. coli GC 2232; Mouse Serum pre-incubation,2 µg/mL
same,MIC,E. coli GC 2232; Water pre-incubation,8 µg/mL
same,MIC,E. coli GC 2271; Mouse Serum pre-incubation,2 µg/mL
same,MIC,E. coli GC 2271; Water pre-incubation,8 µg/mL
same,ED50,Staph. aureus Smith; [3],11 mg/kg
same,ED50,Staph. aureus Smith; [4],0.82 mg/kg
same,MIC,E. coli; [5],1 to 4 µg/mL
same,MIC,E. coli; [7],1 to 4 µg/mL
same,MIC,E. coli; [8],8 to 16 µg/mL
same,MIC,E. coli; [9],8 to 16 µg/mL
same,MIC,"c. albicans GC 3066; Candida albicans, GC3066",> 64 µg/mL
same,MIC,c. albicans GC 3066; [6],>64 UG/ML
same,MIC,S. pyogenes GC 4563; Mouse Serum pre-incubation,0.5 µg/mL
same,MIC,S. pyogenes GC 4563; Water pre-incubation,1 µg/mL
same,MIC,E. coli GC 3226; Mouse Serum pre-incubation,2 µg/mL
same,MIC,E. coli GC 3226; Water pre-incubation,16 µg/mL
